Measured values reported in patent US6284896A, “Abeo-ergoline derivatives as 5HT1A ligands” (Pharmacia & Upjohn S.p.A., priority 1994, dated 2001).
pIC50: −log10 of the molar value. Where two headings read alike, the source gives them in different places.

Tests used:
[1] = target: D1 receptor; experiment: D1 receptor binding (Binding Profile table)
[2] = target: T1, 5-HT1A receptor (Rattus norvegicus, UniProt P19327); experiment: Affinity for Serotonin 1A receptor, 3H-8-OH-DPAT binding test (rat hippocampus synaptosome membranes)
T1 construct: Freezed hippocampus dissected out from rats were homogenized; from tissue; host or cells: rat hippocampus, crude synaptosome membranes
T1 sequence (P19327 1-422): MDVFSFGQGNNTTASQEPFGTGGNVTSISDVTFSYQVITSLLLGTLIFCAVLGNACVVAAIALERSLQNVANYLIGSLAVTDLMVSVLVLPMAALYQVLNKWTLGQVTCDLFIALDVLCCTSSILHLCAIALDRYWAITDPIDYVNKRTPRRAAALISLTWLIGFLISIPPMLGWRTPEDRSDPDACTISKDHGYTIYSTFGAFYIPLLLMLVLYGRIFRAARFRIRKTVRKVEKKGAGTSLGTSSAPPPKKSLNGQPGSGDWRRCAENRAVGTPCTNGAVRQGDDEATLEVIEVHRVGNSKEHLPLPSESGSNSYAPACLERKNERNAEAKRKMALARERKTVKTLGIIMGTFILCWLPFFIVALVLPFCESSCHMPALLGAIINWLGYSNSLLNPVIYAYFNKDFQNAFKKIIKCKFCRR
Protocol: Experiment 1: Affinity for Serotonin 1A (^5 KT1A) Receptor [^3 H-8-Hydroxy-2-dipropylaminotetralin (^3-8 -OH-DPTA)-Binding Test].
Preparation of crude synaptosome fraction and binding assay were conducted in accordance with the method reported in Journal of Neurochemistry, vol.
The supernatant was centrifuged at 40,000×g for 20 minutes at 0° C. and the resulting pellet was homogenized in 40 volumes of the above buffer and incubated at 37° C. for 10 minutes.
After completion of reaction, the suspension was centrifuged at 40,000×g for 20 minutes at 0° C. The resulting pellet was washed twice by resuspension in 40 volumes of the above buffer and centrifugation, and finally suspended in 60 volumes of ice-cold 50 mM Tris-HCl buffer (pH 7.4) containing 1 EM manganese chloride for use in the next assay.
To the aliquots (900 μl) of synaptosome membranes solution were added 50 μl of tritiated 8-OH-DPAT solution at the terminal concentration of 0.2 nM and 50 μl of test compound solution or 50 μl of its medium, and incubated at 37° C. for 10 minutes. Then to the mixture were added 5 ml of ice-cold 50 mM Tris-HCl buffer (pH 7.4) rapidly vacuum-filtered through Whatman^R GF/B. filters and was washed twice with 5 ml of the same buffer. The radioactivity of the residue remaining on the filters was measured by liquid scintillation counter. Non specific binding was determined under the presence of 10^-5 M serotonin (5-HT).

[3] = target: T2, 5-HT2 receptor (Rattus norvegicus, UniProt P14842); experiment: Affinity for Serotonin 2 (5-HT2) receptor, 3H-Ketanserin binding test (rat cerebral cortex); conditions: 3H-Ketanserin 0.2 mM (so in the source), 37° C., 20 minutes, read-out: Binding Profile IC50 5-HT2
T2 construct: Freezed cerebral cortex dissected out from rats were homogenized; from tissue; host or cells: rat cerebral cortex, crude synaptosome membranes
Protocol: Experiment 2: Affinity for Serotonin 2(5-HT2) Receptor (^3 H-Ketanserin Binding Test).
Preparation of crude synaptosome fraction and binding assay were conducted according to the method reported in Molecular Pharmacology, vol. 21, page 301, 1981 by Leysen et al.
Freezed cerebral cortex dissected out from rats were homogenized in 30 volumes of ice-cold 0.32M sucrose solution and the suspension was centrifuged at 1000×g for 10 minutes at 0° C. The supernatant was centrifuged at 40,000×g for 20 minutes at 0° C. and the resulting pellets was homogenized in 30 volumes of ice-cold 50 mM Tris-HCl buffer (pH 7.7) and incubated at 37° C. for 10 minutes. The suspension was centrifuged at 40,000×g for 20 minutes at 0° C. again. The resulting pellet was homogenized in 100 volumes of the above buffer and provided as synaptosome membranes solutiofifor the next assay.
To the aliquots (900μ) of synaptosome membranes solution were added 50 μl solution ^3 H-Ketanserin solution at the terminal concentration of 0.2 mM and 50 μl of test compound or its medium, and incubated at 37° C. for 20 minutes. After completion of the reaction, the mixture was rapidly vacuum-filtered through Whatman^R GF/B filters. The filters were washed three times with 5 ml of the above buffer, and then the radioactivity of the residue remaining on the filters was measured by liquid scintillation counter. Non specific binding was determined under the presence of 10 μM of mianserin. 50% inhibition concentration (ICY) of the test compound was graphically determined.

[4] = target: T3, D2 receptor (Rattus norvegicus, UniProt P61169); experiment: Affinity for Dopamine 2 (D2) receptor, 3H-Spiperone binding test (rat corpus striatum)
T3 construct: Freezed corpus striatum dissected out from rats were homogenized; from tissue; host or cells: rat corpus striatum, crude synaptosome membranes
Protocol: Experiment 3: Affinity for Dopamine 2 (D2) Receptor (^3 H-Spiperone Binding Test).
Preparation of crude synaptosome fraction and binding assays were conducted in accordance with the method reported in European Journal of Pharmacology, vol. 46, page 377, 1977 by I. Creese et al. Freezed corpus striatum dissected out from rats were homogenized in 100 volumes of ice-cold 50 mM Tris-HCl buffer (pH 7.7) and the suspension was centrifuged at 500×g for 10 minutes at 0° C. The supernatant was centrifuged at 50,000×g for 15 minutes at 0° C. and the resulting pellet was homogenized in 100 volumes of the above buffer and then the suspension was centrifuged at 50,000×g for 15 minutes at 0° C. again. The resulting pellet was homogenized in 150 volumes of 50 mM Tris-HCl buffer (pH 7.1) containing 120 mM potassium chloride, 2 mM calcium chloride, 1 mM magnesium chloride, 0.1% ascorbic acid and 10 μM pargyline. The suspension was incubated at 37° C. for 10 minutes and then provided as synaptosome membranes solution for the next assays. To the aliquots (900 μ) of synaptosome membranes solution were added 50 μl of 3H-Spiperone solution at the terminal concentration of 0.2 nM and 50 μl of test compound solution or 50 μl of its medium, and incubated at 37° C. for 20 minutes. After completion of the reaction, the mixture was rapidly vacuum-filtered through WhatmanR GF/B filters. The filters were washed three times with 5 ml of the above buffer, and then the radioactivity of the residue remaining on the filters was measured by liquid scintillation counter. Non specific binding was determined under presence of 100 μM of (L)-Sulpiride 50% inhibition concentration (IC50) of the test compound was graphically determined.

[5] = read-out: Binding Profile IC50 5-HT1A, tritiated 8-OH-DPAT 0.2 nM, rat hippocampus, 37° C., 10 minutes
[6] = tritiated 8-OH-DPAT 0.2 nM, rat hippocampus, 37° C., 10 minutes, read-out: Binding Profile IC50 5-HT1A
[7] = 3H-Spiperone 0.2 nM, rat corpus striatum, 37° C., 20 minutes, read-out: Binding Profile IC50 D2

T3 sequence (P61169 whole entry): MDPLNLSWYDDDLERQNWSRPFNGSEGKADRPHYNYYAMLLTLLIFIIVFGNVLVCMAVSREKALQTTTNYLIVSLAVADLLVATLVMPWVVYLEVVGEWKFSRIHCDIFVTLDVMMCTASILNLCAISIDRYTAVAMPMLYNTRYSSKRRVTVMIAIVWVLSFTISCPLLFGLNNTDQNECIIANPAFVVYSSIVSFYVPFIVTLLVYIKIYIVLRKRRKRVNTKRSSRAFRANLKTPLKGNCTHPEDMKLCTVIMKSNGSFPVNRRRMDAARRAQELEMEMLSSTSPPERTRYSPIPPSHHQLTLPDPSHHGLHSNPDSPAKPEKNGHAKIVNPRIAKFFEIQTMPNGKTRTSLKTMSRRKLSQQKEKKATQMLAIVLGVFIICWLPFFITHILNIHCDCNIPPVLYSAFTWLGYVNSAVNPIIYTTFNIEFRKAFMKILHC
T2 sequence (P14842 whole entry): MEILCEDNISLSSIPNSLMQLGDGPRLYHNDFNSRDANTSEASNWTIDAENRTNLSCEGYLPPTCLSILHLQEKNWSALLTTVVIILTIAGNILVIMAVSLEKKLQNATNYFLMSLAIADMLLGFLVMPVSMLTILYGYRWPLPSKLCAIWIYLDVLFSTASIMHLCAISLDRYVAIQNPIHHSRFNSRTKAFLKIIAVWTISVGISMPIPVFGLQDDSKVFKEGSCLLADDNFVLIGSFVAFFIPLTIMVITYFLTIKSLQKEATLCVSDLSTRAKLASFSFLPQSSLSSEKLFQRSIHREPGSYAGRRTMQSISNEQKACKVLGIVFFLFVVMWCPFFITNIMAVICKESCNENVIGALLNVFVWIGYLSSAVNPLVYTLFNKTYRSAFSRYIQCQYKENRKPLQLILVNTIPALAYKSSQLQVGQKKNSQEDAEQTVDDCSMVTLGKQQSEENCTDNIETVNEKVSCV

C[C@H]1CN(C)[C@@H]2Cc3c[nH]c4ccc([N+](=O)[O-])c(c34)C=C21 [Example 42, 5β(10→9)abeo-9,10-Didehydro-6-methyl-8β-methyl-14-nitro ergolina]
pIC50 [1]: < 5.00 | pIC50 [2, 5]: 7.74 | pIC50 [3]: 5.73 | pIC50 ([4]; read-out: Binding Profile IC50 D2, 3H-Spiperone 0.2 nM, rat corpus striatum, 37° C., 20 minutes): 5.70

CSc1[nH]c2cccc3c2c1C[C@@H]1C(=C3)[C@@H](C)CN1C [Example 5, 5β(10→9)abeo-9,10-Didehydro-2-methylthio-6-methyl-8β-methyl-ergoline]
pIC50 [1]: 5.60 | pIC50 [2]: 6.10 | pIC50 [3]: 6.10 | pIC50 [4]: 6.07

C[C@H]1CN(C)[C@@H]2Cc3c(Br)[nH]c4cccc(c34)C=C21 [Example 4, 5β(10→9)abeo-9,10-Didehydro-2-bromo-6-methyl-8β-methyl-ergoline]
pIC50 [1]: 5.72 | pIC50 [2, 6]: 6.48 | pIC50 [3]: 6.00 | pIC50 [4, 7]: 6.21

C[C@H]1CN(C)[C@@H]2C[C@@H]3CN(C(N)=O)c4cccc(c43)C=C21 [Example 36, 5β(10→9)abeo-2,3β-Dihydro-9,10-didehydro-1-amino-carbonyl-6-methyl-8β-methyl-ergoline]
pIC50 [1]: < 5.00 | pIC50 [2, 6]: 7.00 | pIC50 [3]: < 5.00 | pIC50 [4, 7]: 5.35

CC(=O)N1C[C@@H]2C[C@@H]3C(=Cc4cccc1c42)[C@@H](C)CN3C [Example 35, 5β(10→9)abeo-2,3α-Dihydro-9,10-didehydro-1-acetyl-6-methyl-8β-methyl-ergoline]
pIC50 [1]: < 5.00 | pIC50 [2, 6]: 6.28 | pIC50 [3]: < 5.00 | pIC50 [4, 7]: 5.22

C[C@H]1CN(C)[C@@H]2Cc3c[nH]c4cccc(c34)C=C21 [Example 3, 5β(10→9)abeo-9,10-Didehydro-6-methyl-8β-methyl-ergoline]
pIC50 [1]: 5.73 | pIC50 [2]: 8.22 | pIC50 [3]: 6.96 | pIC50 [4, 7]: 6.03

C[C@H]1CN(C)[C@@H]2C[C@@H]3CNc4cccc(c43)C=C21 [Example 33, 5β(10→9)abeo-2,3β-Dihydro-9,10-didehydro-6-methyl-8β-methyl-ergoline]
pIC50 [1]: < 5.00 | pIC50 [2, 5]: 8.22 | pIC50 [3]: < 5.00 | pIC50 [4, 7]: < 5.00

CC(=O)N1C[C@H]2C[C@@H]3C(=Cc4cccc1c42)[C@@H](C)CN3C [Example 34, 5β(10→9)abeo-2,3β-Dihydro-9,10-didehydro-1-acetyl-6-methyl-8β-methyl-ergoline]
pIC50 [1]: < 5.00 | pIC50 [2, 6]: 7.00 | pIC50 [3]: < 5.00 | pIC50 [4, 7]: 5.30

C[C@H]1CN(C)[C@@H]2C[C@@H]3CNc4ccc(Br)c(c43)C=C21 [Example 39, 5β(10→9)abeo-2,3β-Dihydro-9,10-didehydro-6-methyl-8β-methyl-12-bromo-ergoline]
pIC50 [1]: 5.15 | pIC50 [2]: 8.22 | pIC50 [3]: 5.68 | pIC50 [4]: 6.89

C[C@H]1CN(C)[C@@H]2C[C@@H]3CNc4ccc([N+](=O)[O-])c(c43)C=C21 [Example 40, 5β(10→9)abeo-2,3β-Dihydro-9,10-didehydro-6-methyl-8β-methyl-12 nitro-ergoline]
pIC50 [1]: 5.56 | pIC50 [2, 6]: 8.52 | pIC50 [3]: 5.91 | pIC50 [4, 7]: 5.31
